{
  "source": "ChEMBL document CHEMBL4840331",
  "about": "“Configurational Assignment of a Flexible Benzo[g]isochromene Stereodiad from Rubia philippinensis and Inhibition of Soluble Epoxide Hydrolase Activity” (J Nat Prod, 2021)",
  "target": "T1, Bifunctional epoxide hydrolase 2 (Homo sapiens, UniProt P34913)",
  "T1 sequence (P34913 whole entry)": "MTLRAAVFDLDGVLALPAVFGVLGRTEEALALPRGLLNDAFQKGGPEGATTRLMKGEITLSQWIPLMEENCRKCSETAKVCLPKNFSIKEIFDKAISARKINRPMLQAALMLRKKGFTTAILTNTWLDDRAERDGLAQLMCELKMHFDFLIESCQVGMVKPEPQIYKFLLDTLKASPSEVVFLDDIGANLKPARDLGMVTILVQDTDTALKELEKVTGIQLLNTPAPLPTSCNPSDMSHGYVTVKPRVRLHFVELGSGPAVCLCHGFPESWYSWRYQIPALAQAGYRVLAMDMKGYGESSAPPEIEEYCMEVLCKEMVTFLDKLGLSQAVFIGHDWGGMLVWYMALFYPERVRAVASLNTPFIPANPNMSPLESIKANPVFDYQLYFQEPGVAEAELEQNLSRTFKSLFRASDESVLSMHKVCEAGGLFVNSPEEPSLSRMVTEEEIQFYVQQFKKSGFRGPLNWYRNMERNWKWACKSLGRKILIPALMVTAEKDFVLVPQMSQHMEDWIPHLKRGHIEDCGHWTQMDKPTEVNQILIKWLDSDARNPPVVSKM",
  "experiment": "Inhibition of sEH (unknown origin) expressed in baculovirus expression system incubated for 1 hr",
  "data": [
    {"smiles": "C[C@@H](C(=O)O)[C@H]1Cc2c(c(O)c3ccccc3c2O[C@@H]2O[C@H](CO)[C@@H](O)[C@H](O)[C@H]2O)C(=O)O1", "values": [
      {"measurement": "IC50", "result": 600, "unit": "nM"}
    ]}
  ]
}
